EC50 data for 37 compounds are collected here from patent US11180483B2, “Substituted reverse pyrimidine Bmi-1 inhibitors” (PTC Therapeutics, Inc., priority 2012, dated 2021).

This assay has as its system Bmi-1. Briefly: Sandwich ELISA Assay (Bmi-1 ELISA) in HT-1080 cells. The assay is classed as cell-based. In a few lines:
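Bmi-1 in lysates was measured by a three-antibody ELISA with TMB, OD450 minus OD570 reference, interpolated on a GST-tagged recombinant Bmi-1 standard curve, 0-8000 pg/mL. Lysates came from HT-1080 cells treated 40-48 h with compound, final DMSO 0.5%.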
The EC50 is the midpoint of the concentration-response curve. Regarding `Cc1nc2ccccc2n1-c1nc(N)cc(Nc2ccc([N+](=O)[O-])cc2)n1` [Cpd 211, 2-(2-methyl-1H-benzimidazol-1-yl)-N-(4-nitrophenyl)pyrimidine-4,6-diamine], the EC50 was 100 to 3000 nM.

`Cc1nc2ccccc2n1-c1nc(N)cc(Nc2ccc(Br)cc2)n1` [Cpd 212, N-(4-bromophenyl)-2-(2-methyl-1H-benzimidazol-1-yl)pyrimidine-4,6-diamine] returned a concentration for a half-maximal effect (EC50) of 10 to 100 nM.

Compound `Cc1ccc(Nc2nc(-n3c(C)nc4cc(F)c(F)cc43)nc(N)c2F)cc1` [Cpd 213, 2-(5,6-difluoro-2-methyl-1H-benzimidazol-1-yl)-5-fluoro-N-(4-methylphenyl)pyrimidine-4,6-diamine] came in with an EC50 of 1 to 10 nM.

As to `COc1ccc(Nc2nc(-n3c(C)nc4cc(F)c(F)cc43)nc(N)c2F)cc1` [Cpd 214, 2-(5,6-difluoro-2-methyl-1H-benzimidazol-1-yl)-5-fluoro-N-(4-methoxyphenyl)pyrimidine-4,6-diamine], the EC50 lay within 10 to 100 nM.

`Cc1nc2cc(F)c(F)cc2n1-c1nc(N)c(F)c(Nc2ccc(Cl)cc2)n1` [Cpd 215, N-(4-chlorophenyl)-2-(5,6-difluoro-2-methyl-1H-benzimidazol-1-yl)-5-fluoropyrimidine-4,6-diamine] yielded an EC50 of 100 to 3000 nM.

`COCc1nc2ccccc2n1-c1nc(N)c(F)c(Nc2ccc(OC(F)F)cc2)n1` [Cpd 216, N-[4-(difluoromethoxy)phenyl]-5-fluoro-2-[2-(methoxymethyl)-1H-benzimidazol-1-yl]pyrimidine-4,6-diamine] registered a concentration for a half-maximal effect (EC50) of 10 to 100 nM.

`COCc1nc2ccccc2n1-c1nc(N)c(F)c(Nc2ccc(C)cc2)n1` [Cpd 217, 5-fluoro-2-[2-(methoxymethyl)-1H-benzimidazol-1-yl]-N-(4-methylphenyl)pyrimidine-4,6-diamine] returned a 50% effective concentration (EC50) of 10 to 100 nM.

`COCc1nc2ccccc2n1-c1nc(N)c(F)c(Nc2ccc(OC)cc2)n1` [Cpd 218, 5-fluoro-2-[2-(methoxymethyl)-1H-benzimidazol-1-yl]-N-(4-methoxyphenyl)pyrimidine-4,6-diamine] returned an EC50 of 1 to 10 nM.

`COCc1nc2ccccc2n1-c1nc(N)c(F)c(Nc2ccc(Cl)cc2)n1` [Cpd 219, N-(4-chlorophenyl)-5-fluoro-2-[2-(methoxymethyl)-1H-benzimidazol-1-yl]pyrimidine-4,6-diamine] came in with an EC50 of 100 to 3000 nM.

In the case of `COCc1nc2ccccc2n1-c1nc(N)c(F)c(Nc2ccc(C(F)(F)F)cc2)n1` [Cpd 220, 5-fluoro-2-[2-(methoxymethyl)-1H-benzimidazol-1-yl]-N-[4-(trifluoromethyl)phenyl]pyrimidine-4,6-diamine], the EC50 lay within 10 to 100 nM.

Compound `Cc1nc2ccccc2n1-c1nc(N)cc(Nc2ccc(OC(F)(F)F)cc2)n1` [Cpd 221, 2-(2-methyl-1H-benzimidazol-1-yl)-N-[4-(trifluoromethoxy)phenyl]pyrimidine-4,6-diamine] yielded an EC50 of 100 to 3000 nM.

The compound `Cc1nc2ccc(C#N)cc2n1-c1nc(N)c(F)c(Nc2ccc(C(F)(F)F)cc2)n1` [Cpd 222, 1-(4-amino-5-fluoro-6-{[4-(trifluoromethyl)phenyl]amino}pyrimidin-2-yl)-2-methyl-1H-benzimidazole-6-carbonitrile] displayed an EC50 of 100 to 3000 nM.

For the compound `Cc1nc2ccc(C#N)cc2n1-c1nc(N)c(F)c(Nc2ccc(OC(F)F)cc2)n1` [Cpd 223, 1-(4-amino-6-{[4-(difluoromethoxy)phenyl]amino}-5-fluoropyrimidin-2-yl)-2-methyl-1H-benzimidazole-6-carbonitrile], the EC50 lay within 100 to 3000 nM.

`Cc1ccc(Nc2nc(-n3c(C)nc4ccc(C#N)cc43)nc(N)c2F)cc1` [Cpd 224] displayed an EC50 of 10 to 100 nM.

In turn, `COc1ccc(Nc2nc(-n3c(C)nc4ccc(C#N)cc43)nc(N)c2F)cc1` [Cpd 225, 1-{4-amino-5-fluoro-6-[(4-methoxyphenyl)amino]pyrimidin-2-yl}-2-methyl-1H-benzimidazole-6-carbonitrile] showed an EC50 of 10 to 100 nM.

For `Cc1nc2cc(C#N)ccc2n1-c1nc(N)c(F)c(Nc2ccc(OC(F)F)cc2)n1` [Cpd 226, 1-(4-amino-6-{[4-(difluoromethoxy)phenyl]amino}-5-fluoropyrimidin-2-yl)-2-methyl-1H-benzimidazole-5-carbonitrile], the EC50 was 100 to 3000 nM.

`Cc1ccc(Nc2nc(-n3c(C)nc4cc(C#N)ccc43)nc(N)c2F)cc1` [Cpd 227, 1-{4-amino-5-fluoro-6-[(4-methylphenyl)amino]pyrimidin-2-yl}-2-methyl-1H-benzimidazole-5-carbonitrile]: the EC50 fell in the range of 10 to 100 nM.

On to `COc1ccc(Nc2nc(-n3c(C)nc4cc(C#N)ccc43)nc(N)c2F)cc1` [Cpd 228], for which the EC50 was 10 to 100 nM.

For the compound `Cc1nc2cc(C#N)ccc2n1-c1nc(N)c(F)c(Nc2ccc(C(F)(F)F)cc2)n1` [Cpd 229, 1-(4-amino-5-fluoro-6-{[4-(trifluoromethyl)phenyl]amino}pyrimidin-2-yl)-2-methyl-1H-benzimidazole-5-carbonitrile], the EC50 fell in the range of 100 to 3000 nM.

Take `Cc1nc2cc(C#N)ccc2n1-c1nc(N)c(F)c(Nc2ccc(Cl)cc2)n1` [Cpd 230, 1-{4-amino-6-[(4-chlorophenyl)amino]-5-fluoropyrimidin-2-yl}-2-methyl-1H-benzimidazole-5-carbonitrile]: the concentration for a half-maximal effect (EC50) was in the range of 100 to 3000 nM.

`Cc1nc2ccc([N+](=O)[O-])cc2n1-c1nc(N)c(F)c(Nc2ccc(OC(F)F)cc2)n1` [Cpd 231, N-[4-(difluoromethoxy)phenyl]-5-fluoro-2-(2-methyl-6-nitro-1H-benzimidazol-1-yl)pyrimidine-4,6-diamine] showed an EC50 of 100 to 3000 nM.

`Cc1ccc(Nc2nc(-n3c(C)nc4ccc([N+](=O)[O-])cc43)nc(N)c2F)cc1` [Cpd 232, 5-fluoro-2-(2-methyl-6-nitro-1H-benzimidazol-1-yl)-N-(4-methylphenyl)pyrimidine-4,6-diamine] yielded an EC50 of 10 to 100 nM.

With `COc1ccc(Nc2nc(-n3c(C)nc4ccc([N+](=O)[O-])cc43)nc(N)c2F)cc1` [Cpd 233, 5-fluoro-N-(4-methoxyphenyl)-2-(2-methyl-6-nitro-1H-benzimidazol-1-yl)pyrimidine-4,6-diamine], the EC50 lay in the range of 10 to 100 nM.

Regarding `Cc1nc2ccccc2n1-c1nc(N)cc(Nc2ccc(OC(F)F)cc2)n1` [Cpd 234, N-[4-(difluoromethoxy)phenyl]-2-(2-methyl-1H-benzimidazol-1-yl)pyrimidine-4,6-diamine], the EC50 lay in the range of 10 to 100 nM.

In the case of `Cc1nc2ccccc2n1-c1nc(N)cc(Nc2ccc(OC(F)F)c(F)c2)n1` [Cpd 235, N-[4-(difluoromethoxy)-3-fluorophenyl]-2-(2-methyl-1H-benzimidazol-1-yl)pyrimidine-4,6-diamine], the EC50 lay in the range of 10 to 100 nM.

Turning to `Cc1nc2ccc([N+](=O)[O-])cc2n1-c1nc(N)c(F)c(Nc2ccc(C(F)(F)F)cc2)n1` [Cpd 236, 5-fluoro-2-(2-methyl-6-nitro-1H-benzimidazol-1-yl)-N-[4-(trifluoromethyl)phenyl]pyrimidine-4,6-diamine], the EC50 lay in the range of 100 to 3000 nM.

Take `Cc1nc2c(F)cc(F)cc2n1-c1nc(N)c(F)c(Nc2ccc(Cl)cc2)n1` [Cpd 237, N-(4-chlorophenyl)-2-(4,6-difluoro-2-methyl-1H-benzimidazol-1-yl)-5-fluoropyrimidine-4,6-diamine]: the EC50 lay within 10 to 100 nM.

With `Cc1nc2c(F)cc(F)cc2n1-c1nc(N)c(F)c(Nc2ccc(OC(F)(F)F)cc2)n1` [Cpd 238, 2-(4,6-difluoro-2-methyl-1H-benzimidazol-1-yl)-5-fluoro-N-[4-(trifluoromethoxy)phenyl]pyrimidine-4,6-diamine], the EC50 lay within 100 to 3000 nM.

For `COc1ccc(Nc2nc(-c3c(C)nn4ccccc34)nc(N)c2F)cc1` [Cpd 239, 5-fluoro-N-(4-methoxyphenyl)-2-(2-methylpyrazolo[1,5-a]pyridin-3-yl)pyrimidine-4,6-diamine], the EC50 lay in the range of 10 to 100 nM.

On to `Cc1nc2c(F)cc(F)cc2n1-c1nc(N)c(F)c(Nc2ccc3c(c2)OCO3)n1` [Cpd 240, N-(1,3-benzodioxol-5-yl)-2-(4,6-difluoro-2-methyl-1H-benzimidazol-1-yl)-5-fluoropyrimidine-4,6-diamine], for which the EC50 lay in the range of 1 to 10 nM.

`Cc1ccc(Nc2nc(-n3c(C)nc4c(F)cc(F)cc43)nc(N)c2F)cc1` [Cpd 241, 2-(4,6-difluoro-2-methyl-1H-benzimidazol-1-yl)-5-fluoro-N-(4-methylphenyl)pyrimidine-4,6-diamine] showed a concentration for a half-maximal effect (EC50) of 10 to 100 nM.

As for `COc1ccc(Nc2nc(-n3c(C)nc4c(F)cc(F)cc43)nc(N)c2F)cc1` [Cpd 242, 2-(4,6-difluoro-2-methyl-1H-benzimidazol-1-yl)-5-fluoro-N-(4-methoxyphenyl)pyrimidine-4,6-diamine], the EC50 lay within 1 to 10 nM.

Consider `Cc1nc2cc(F)cc(F)c2n1-c1nc(N)c(F)c(Nc2ccc(C(F)(F)F)cc2)n1` [Cpd 243, 2-(5,7-difluoro-2-methyl-1H-benzimidazol-1-yl)-5-fluoro-N-[4-(trifluoromethyl)phenyl]pyrimidine-4,6-diamine], for which the EC50 was 10 to 100 nM.

`COc1ccc2nc(C)n(-c3nc(N)c(F)c(Nc4ccc(C(F)(F)F)cc4)n3)c2c1` [Cpd 244, 5-fluoro-2-(6-methoxy-2-methyl-1H-benzimidazol-1-yl)-N-[4-(trifluoromethyl)phenyl]pyrimidine-4,6-diamine] displayed a half-maximal effective concentration (EC50) of 10 to 100 nM.

Compound `COc1ccc2nc(C)n(-c3nc(N)c(F)c(Nc4ccc(Cl)cc4)n3)c2c1` [Cpd 245, N-(4-chlorophenyl)-5-fluoro-2-(6-methoxy-2-methyl-1H-benzimidazol-1-yl)pyrimidine-4,6-diamine] yielded an EC50 of 10 to 100 nM.

`COc1ccc2nc(C)n(-c3nc(N)c(F)c(Nc4ccc(OC(F)(F)F)cc4)n3)c2c1` [Cpd 246, 5-fluoro-2-(6-methoxy-2-methyl-1H-benzimidazol-1-yl)-N-[4-(trifluoromethoxy)phenyl]pyrimidine-4,6-diamine]: the EC50 lay in the range of 10 to 100 nM.

In turn, `COc1ccc2nc(C)n(-c3nc(N)c(F)c(Nc4ccc(OC(F)F)cc4)n3)c2c1` [Cpd 247, N-[4-(difluoromethoxy)phenyl]-5-fluoro-2-(6-methoxy-2-methyl-1H-benzimidazol-1-yl)pyrimidine-4,6-diamine] came in with an EC50 of 10 to 100 nM.
